Several values for one entry are separate records, joined by “and”; a condition that tells them apart may be missing. Equal entries are not always repeated.
How the values were obtained:
ECHSS = experiment: Example V post-emergence field trials in direct-seeded rice; format: in vivo, multiple Echinochloa species; conditions: foliar, field trial Italy
Procedure: (§1) Multiple field trials were conducted under commercial grower field conditions in Tolima, Colombia; Thessaloniki, Greece; Bianze and Copiano, Italy; and Humphrey, Ark., USA. Trials sites were located in commercially grown fields of direct-seeded rice (Oryza sativa) using standard herbicide small plot research methodology. Plots varied from 2 to 3 meter (m)×5 to 8 m (width×length) with 4 replicates per treatment. The rice crop was grown using normal cultural practices for fertilization, seeding, watering, flooding and maintenance to ensure good growth of the crop and the weeds.
(§2) All treatments in the field trials were applied using a backpack compressed air/gas sprayer with flat fan nozzles (80° or 110°) calibrated to apply 187 to 300 L/ha spray volume at approximately 200-400 kPa nozzle pressure. Commercially available products of cyhalofop-butyl (Clincher 180EC, Clincher 200EC, and Clincher SF (285 gr ai/L EC)) were mixed in water at appropriate formulated product rates to achieve the desired rates based on a unit area of application (hectare) to achieve the desired rates as shown. Treatments were rate at 19 to 58 days after application (DAA) as compared to the untreated control plants. Visual weed control was scored on a scale of 0 to 100 percent where 0 corresponds to no injury and 100 corresponds to complete kill. […]

SCPMU = experiment: as above; format: in vivo, Schoenoplectus mucronatus; conditions: foliar, field trial Italy
Procedure: as §1, §2

SEBEX = experiment: as above; format: in vivo, Sesbania exaltata; conditions: foliar, field trial Humphrey, Arkansas, USA
Procedure: as §1
All treatments in the field trials were applied using a backpack compressed air/gas sprayer with flat fan nozzles (80° or 110°) calibrated to apply 187 to 300 L/ha spray volume at approximately 200-400 kPa nozzle pressure. Commercially available products of cyhalofop-butyl (Clincher 180EC, Clincher 200EC, and Clincher SF (285 gr ai/L EC)) were mixed in water at appropriate formulated product rates to achieve the desired rates based on a unit area of application (hectare) to achieve the desired rates as shown. […] Visual weed control was scored on a scale of 0 to 100 percent where 0 corresponds to no injury and 100 corresponds to complete kill.
All treatment results, both for the single product and mixtures, are an average of 4 replicates. The trial sites had naturally occurring populations of weeds. The weed spectrum included, but was not limited to, rice flatsedge (Cyperus iria, CYPIR); smallflower umbrellaplant (Cyperus difformis, CYPDI), junglerice (Echinochloa colona, ECHCO), barnyardgrass (Echinochloa crus-galli, ECHCG); multiple Echinochloa species in the same field (ECHSS), grasslike fimbristylis (Fimbristylis miliacea, FIMMI); ricefield bulrush (Schoenoplectus mucronatus, SCPMU) and hemp Sesbania (Sesbania exaltata, SEBEX). All synergistic interactions were significant at the […] level.

ECHCO = experiment: Example V (second) postemergence foliar-applied ternary mixtures, greenhouse, direct seeded rice weeds; format: in vivo, Echinochloa colona (L.) Link
Procedure: (§3) The treated plants and control plants were placed in a greenhouse as described above and watered by sub-irrigation to prevent wash-off of the test compounds. After approximately 3 weeks, the condition of the test plants as compared with that of the untreated plants was determined visually and scored on a scale of 0 to 100 percent where 0 corresponds to no injury or growth inhibition and 100 corresponds to complete kill.
(§4) Colby's equation was used to determine the herbicidal effects expected from the mixtures (Colby, S. R. 1967. Calculation of the synergistic and antagonistic response of herbicide combinations. Weeds 15:20-22.).
(§5) The following equation was used to calculate the expected activity of mixtures containing three active ingredients, A, B, and C: Expected=A+B+C−((A×B+A×C+B×C)/100)+(A×B×C/10000)

LEFCH = experiment: as above; format: in vivo, Leptochloa chinensis (L.) Nees
Procedure: as §3, §4, §5

FIMMI = experiment: Example II in-water applied, greenhouse, transplanted paddy rice weeds; format: in vivo, Fimbristylis miliacea (L.) Vahl
Procedure: Weed seeds or nutlets of the desired test plant species were planted in puddled soil (mud) prepared by mixing a shredded, non-sterilized mineral soil (50.5 percent silt, 25.5 percent clay, and 24 percent sand, with a pH of about 7.6 and an organic matter content of about 2.9 percent) and water at a 1:1 volumetric ratio. The prepared mud was dispensed in 365 mL aliquots into 16-ounce (oz.) non-perforated plastic pots with a surface area of 86.59 square centimeters (cm^2) leaving a headspace of 3 centimeters (cm) in each pot. Mud was allowed to dry overnight prior to planting or transplanting. Rice seeds were planted in Sun Gro MetroMix® 306 planting mixture, which typically has a pH of 6.0 to 6.8 and an organic matter content of about 30 percent, in plastic plug trays. Seedlings at the second or third leaf stage of growth were transplanted into 860 mL of mud contained in 32-oz. non-perforated plastic pots with a surface area of 86.59 cm^2 4 days prior to herbicide application. The paddy was created by filling the headspace of the pots with 2.5 to 3 cm of water. […] The plants were grown for 4-22 days in a greenhouse with an approximate 14 hr. photoperiod which was maintained at about 29° C. during the day and 26° C. during the night. Nutrients were added as Osmocote® (19:6:12, N:P:K+minor nutrients) at 2 g per 16-oz. pot and 4 g per 32-oz. pot. Water was added on a regular basis to maintain the paddy flood, and supplemental lighting was provided with overhead metal halide 1000-Watt lamps as necessary. The plants were employed for testing when they reached the first through fourth true leaf stage.
Treatments consisted of the acid or esters of 4-amino-3-chloro-5-fluoro-6-(4-chloro-2-fluoro-3-methoxy-phenyl)pyridine-2-carboxylic acid (compound A) each formulated as an SC (suspension concentrate) and various herbicidal components alone and in combination.
For formulated compounds, a measured amount was placed in an individual 100 or 200 mL glass vial and was dissolved in a volume of 1.25% (v/v) Agri-Dex® crop oil concentrate to obtain application solutions.
Applications were made by injecting with a pipetter appropriate amounts of the application solutions, individually and sequentially, into the aqueous layer of the paddy. Control plants were treated in the same manner with the solvent blank. Applications were made so that all treated plant material received the same concentrations of acetone and crop oil concentrate.
The treated plants and control plants were placed in a greenhouse as described above and water was added as needed to maintain a paddy flood. After approximately 3 weeks the condition of the test plants as compared with that of the untreated plants was determined visually and scored on a scale of 0 to 100 percent where 0 corresponds to no injury or growth inhibition and 100 corresponds to complete kill.
as §4
The following equation was used to calculate the expected activity of mixtures containing two active ingredients, A and B: Expected=A+B−(A×B/100)

CCCCOC(=O)[C@@H](C)Oc1ccc(Oc2ccc(C#N)cc2F)cc1 [Cyhalofop-butyl, butyl(2R)-2-[4-(4-cyano-2-fluorophenoxy)phenoxy]propanoate, reference compound]
Visual Weed Control (%) - 55-58 DAA ECHSS Obs (ECHSS; 300 gai/ha): 37%
Visual Weed Control (%) - 55-58 DAA SCPMU Obs (SCPMU; 300 gai/ha): 6%
Visual Weed Control (%) - 7 DAA SEBEX Obs (SEBEX; 280 gai/ha): 0%
Visual Weed Control (%) - 21 DAA ECHCO Obs (ECHCO; 35 gai/ha): 37% and 40%
Visual Weed Control (%) - 21 DAA LEFCH Obs (LEFCH; 35 gai/ha): 68%
Visual Weed Control (%) - 22 DAA LEFCH Obs (LEFCH; 35 gai/ha): 70%

C[C@@H](Oc1ccc(Oc2nc3ccc(Cl)cc3o2)cc1)C(=O)N(C)c1ccccc1F [Metamifop, (2R)-2-[4-[(6-chloro-2-benzoxazolyl)oxy]phenoxy]-N-(2-fluorophenyl)-N-methylpropanamide]
Visual Weed Control (%) - 21 DAA FIMMI Obs (FIMMI; 75 gai/ha): 0%
Visual Weed Control (%) - 21 DAA FIMMI Obs (FIMMI; 150 gai/ha): 0%

COc1c(Cl)ccc(-c2nc(C(=O)O)c(Cl)c(N)c2F)c1F [Compound A Acid, 4-amino-3-chloro-6-(4-chloro-2-fluoro-3-methoxyphenyl)-5-fluoropyridine-2-carboxylic acid]
Visual Weed Control (%) - 21 DAA FIMMI Obs (FIMMI; 8.75 gae/ha): 20%
Visual Weed Control (%) - 21 DAA FIMMI Obs (FIMMI; 35 gae/ha): 85%

COc1c(Cl)ccc(-c2nc(C(=O)OCc3ccccc3)c(Cl)c(N)c2F)c1F [Compound A Benzyl Ester, benzyl ester of 4-amino-3-chloro-5-fluoro-6-(4-chloro-2-fluoro-3-methoxy-phenyl)pyridine-2-carboxylic acid]
Visual Weed Control (%) - 55-58 DAA ECHSS Obs (ECHSS; 24 gae/ha): 40%
Visual Weed Control (%) - 55-58 DAA SCPMU Obs (SCPMU; 24 gae/ha): 27%
Visual Weed Control (%) - 7 DAA SEBEX Obs (SEBEX; 24 gae/ha): 80%
Visual Weed Control (%) - 7 DAA SEBEX Obs (SEBEX; 32 gae/ha): 78%
Visual Weed Control (%) - 21 DAA ECHCO Obs (ECHCO; 2.19 gae/ha): 10%
Visual Weed Control (%) - 21 DAA ECHCO Obs (ECHCO; 4.38 gae/ha): 25%
Visual Weed Control (%) - 21 DAA ECHCO Obs (ECHCO; 8 gae/ha): 45%
Visual Weed Control (%) - 22 DAA LEFCH Obs (LEFCH; 8 gae/ha): 28%
Visual Weed Control (%) - 21 DAA LEFCH Obs (LEFCH; 16 gae/ha): 25%

Source: US9232796B2, “Herbicidal compositions comprising 4-amino-3-chloro-5-fluoro-6-(4-chloro-2-fluoro-3-methoxyphenyl) pyridine-2-carboxylic acid or a derivative thereof and acetyl-CoA carboxylase (ACCase) inhibitors” (DOW AGROSCIENCES LLC, priority 2012, dated 2016)
